# Laboratory results published in US7166599B2, “Trisubstituted pyrimidines” (Boehringer Ingelheim Pharma GmbH & Co. KG, priority 2001, dated 2007).
# Test system: not given
# Test: not given
# Details: not given
row,melting point,Structure (SMILES)
1,288 °C,"CNc1nc(Nc2ccc([S+](C)[O-])cc2)ncc1[N+](=O)[O-] (stereo not drawn) [Example 10 a), 2-(4-methylsulphinylphenylamino)-4-methylamino-5-nitropyrimidine]"
2,323 °C,"CNc1nc(Nc2ccc(S(C)(=O)=O)cc2)ncc1[N+](=O)[O-] [Example 10 b), 2-(4-methylsulphonylphenylamino)-4-methylamino-5-nitropyrimidine]"
3,270 °C,CNc1nc(Nc2cccc(OCCN)c2)ncc1[N+](=O)[O-].Cl.Cl

# Test system: γ-secretase
# Test: γ-secretase HTS luciferase reporter assay (inhibition of Aβ formation) in H4 neuroglioma cells stably carrying pFRLuc and Aβ-KKK/Gal4
# Type: cell-based
# Details: luciferase activity (Steady-Glo) in doubly stable H4 neuroglioma HTS cell line, test substance incubated overnight (8–16 h), compared with control
# Source text: The inhibition of Aβ formation was investigated using the following test system:
# Preparation of a suitable γ-secretase HTS cell line:
# H4 neuroglioma cells (Accession number HTB 148 at the “American Type Culture Collection”, Manassas, Va., USA) were transfected under standard conditions with the reporter construct pFRLuc (Stratagene) which carries the gene for luciferase. By transient transfection experiments with pcDNA3-Gal4 which codes for the soluble Gal4, an individual clone having the highest luciferase activity was selected. In order to prepare the Aβ-KKK/Gal4 construct, a sequence containing the N-terminal signal sequence of APP and the first 55 amino acids of Aβ (Shoji et al, 1992) was linked to the Gal4 coding sequence (Laughan, A and Gesteland, R Molec. Cell Biol., 1984, 4: 260–267) by genetic engineering and cloned into the expression vector pcDNA3neo (Invitrogen). This construct was called pcDNA3-AβKKK/Gal4. In order to insert an ER-retention signal in the substrate of the γ-secretase, the last nucleotides of the Gal4 were altered by genetic engineering so that they coded for the amino acids KKLI. This construct was named Aβ-KKK-ER. The cell clone obtained as described above was used for the second stable transfection with pcDNA3-Aβ-KKK/Gal4 or pcDNA3-Aβ-KKK-ER and the selection with neomycin was carried out under standard conditions (Sambrook and Maniatis, 1989). Individual neomycin-resistant cell clones were investigated for their expression of luciferase. The clones with the highest expression were used for the substance analyses. All the transfections were carried out using the Fugene transfection system supplied by Boehringer Mannheim, in accordance with the manufacturer's instructions.
# The doubly stabile HTS cell line is seeded onto a 96/384 microtitre plate. When the cells are confluent, they are incubated with the particular test substance for a specified length of time. After incubation the cell medium is removed and the luciferase enzyme activity is determined precisely as instructed by the manufacturer of the test kit used (SteadyGlo, Promega).
# As a result of the presence of an endogenous γ-secretase activity in the H4 cells the substrate (Aβ-KKK/Gal4) is cleaved proteolytically, while the transactivator Gal4 is able to become detached from the membrane and enter the cell nucleus. In the cell nucleus Gal4 binds to the Gal4-DNA binding domain of the reporter construct and thus activates the expression of the luciferase. If a specific γ-secretase inhibitor is present the substrate cannot be cleaved and Gal4 remains bound to the substrate on the cell membrane, leading to a reduction amounting to total inhibition of the luciferase activity.
# Cells are seeded on 96/384 well plates in DMEM complete medium (10% FCS, 1% glutamine, 1% penicillin/streptomycin) in a dilution of 1:5. The cells are incubated for 24 to 48 h (depending on the cell clone and the dilution used) at 37° C., 5% CO2 and allowed to grow until 80–90% confluence is achieved. Then the test substance is added and the preparation is incubated overnight (8–16 h) at 37° C. and 5% CO2. The 96/384 well plates are equilibrated to ambient temperature (RT). The “Steady-Glo” Luciferase Assay System Kit (Promega catalogue no. E2520) is used. The Luciferase Assay Reagent is thawed and equilibrated to ambient temperature or freshly prepared (Luciferase Assay Substrate dissolved in Luciferase Assay Buffer). The medium is suction filtered […]. 100 μl (based on 96 well plates) of fresh complete medium are added per well. 100 μl (based on 96 well plates) of Luciferase Assay Reagent are added and the preparation is incubated for 5 min at RT. Then the luminescence is measured. For 384 well plates the quantities pipetted are reduced accordingly.
# The measurements are compared with the control and then the IC50 is determined from a number of measurements.
row,Structure (SMILES),IC50
1,"CN(C)c1nc(Nc2ccc(Cl)c(Cl)c2)ncc1NC(=O)N1CCOCC1 [3 (54), 2-(3,4-dichlorophenylamino)-4-dimethylamino-5-(morpholinocarbonylamino)-pyrimidine]",0.9 µM
2,"CNc1nc(Nc2ccc(Cl)c(Cl)c2)ncc1NC(=S)N1CCOCC1 [11 (12), 2-(3,4-dichlorophenylamino)-4-methylamino-5-(morpholinothiocarbonylamino)-pyrimidine]",1 µM
3,"CNc1nc(Nc2ccc(Cl)cc2)ncc1[N+](=O)[O-] [1 (1), 2-(4-chlorophenylamino)-4-methylamino-5-nitro-pyrimidine]",0.8 µM
4,"CNc1nc(Nc2ccc(Cl)c(Cl)c2)ncc1N(C)S(C)(=O)=O [Example 8, 2-(3,4-dichlorophenylamino)-4-methylamino-5-(N-methyl-methylsulphonylamino)-pyrimidine]",1.1 µM
5,"CNc1nc(N(C)c2ccc(Cl)c(Cl)c2)ncc1N1CCNC1=O [8 (2), 2-[N-(3,4-dichlorophenyl)-N-methylamino]-4-methylamino-5-(imidazolidin-2-on-1-yl)-pyrimidine]",1 µM
6,"CNc1nc(Nc2ccc(Cl)c(Cl)c2)ncc1NC(=O)N1CCN(C(C)=O)CC1 [11 (7), 2-(3,4-dichlorophenylamino)-4-methylamino-5-(4-acetylpiperazinocarbonylamino)-pyrimidine]",1 µM
7,"CNc1nc(Nc2ccc(Cl)c(Cl)c2)ncc1NC(=O)N(C)CCN(C)C [11 (10), 2-(3,4-dichlorophenylamino)-4-methylamino-5-[[N-methyl-(2-dimethylamino-ethyl)amino]carbonylamino]-pyrimidine]",0.8 µM
8,"CCNc1nc(Nc2ccc(Cl)c(Cl)c2)ncc1NC(=O)N1CCOCC1 [3 (55), 2-(3,4-dichlorophenylamino)-4-ethylamino-5-(morpholinocarbonylamino)-pyrimidine]",0.9 µM
9,"CNc1nc(Nc2ccc(Cl)c(Cl)c2)ncc1N [2 (1), 2-(3,4-dichlorophenylamino)-4-methylamino-5-amino-pyrimidine]",1 µM
10,"CN(C)CCCNc1nc(Nc2ccc(Cl)c(Cl)c2)ncc1[N+](=O)[O-] [4 (9), 2-(3,4-dichlorophenylamino)-4-[3-(dimethylamino)propylamino]-5-nitro-pyrimidine]",1 µM
11,"CNc1nc(Nc2ccc(Cl)c(Cl)c2)ncc1NC(=O)C(F)(F)F [3 (66), 2-(3,4-dichlorophenylamino)-4-methylamino-5-trifluoracetylamino-pyrimidine]",0.8 µM

# Results, then the compound that gave them:
row,IC50,Structure (SMILES)
1,0.06 µM,"CNc1nc(Nc2ccc(Cl)c(Cl)c2)ncc1NS(C)(=O)=O [3 (3), 2-(3,4-dichlorophenylamino)-4-methylamino-5-methylsulphonylamino-pyrimidine]"
2,0.2 µM,"CNc1nc(Nc2ccc(Cl)c(Cl)c2)ncc1NC(=O)N(C)CCO [11 (8), 2-(3,4-dichlorophenylamino)-4-methylamino-5-[[N-methyl-(2-hydroxyethyl)-amino]carbonylamino]-pyrimidine]"
3,0.06 µM,"CNc1nc(Nc2ccc(Cl)c(Cl)c2)ncc1NC(=O)N1CCCCCC1 [11 (4), 2-(3,4-dichlorophenylamino)-4-methylamino-5-(hexamethyleneiminocarbonylamino)-pyrimidine]"
4,0.06 µM,"CNc1nc(Nc2ccc(Cl)c(Cl)c2)ncc1NC(C)=O [3 (4), 2-(3,4-dichlorophenylamino)-4-methylamino-5-acetylamino-pyrimidine]"
5,0.1 µM,"CCN(CC)C(=O)Nc1cnc(Nc2ccc(Cl)c(Cl)c2)nc1NC [11 (5), 2-(3,4-dichlorophenylamino)-4-methylamino-5-(diethylaminocarbonylamino)-pyrimidine]"
6,0.004 µM,"CNc1nc(Nc2ccc(Cl)c(Cl)c2)ncc1NC(=O)N(CCOC)CCOC [11 (3), 2-(3,4-dichlorophenylamino)-4-methylamino-5-[[bis-(2-methoxyethyl)amino]-carbonylamino]-pyrimidine]"
7,0.2 µM,"CNc1nc(Nc2ccc(Cl)c(Cl)c2)ncc1NC(=O)N1CCOCC1 [3 (30), 2-(3,4-dichlorophenylamino)-4-methylamino-5-morpholinocarbonylamino-pyrimidine]"
8,0.35 µM,"CNc1nc(Nc2ccc(Cl)c(Cl)c2)ncc1NC(N)=O [3 (40), 2-(3,4-dichlorophenylamino)-4-methylamino-5-aminocarbonylamino-pyrimidine]"
9,0.25 µM,"CNc1nc(Nc2ccc(Cl)cc2F)ncc1NC(=O)N(C)C [3 (36), 2-(4-chloro-2-fluorophenylamino)-4-methylamino-5-(N,N-dimethylcarbamoyl-amino)-pyrimidine]"
10,0.7 µM,"CNc1nc(Nc2ccc(Cl)c(Cl)c2)ncc1NC(=O)N(C)CCCN(C)C [11 (11), 2-(3,4-dichlorophenylamino)-4-methylamino-5-[[N-methyl-(3-dimethylaminopropyl)amino]carbonylamino]-pyrimidine]"
11,0.6 µM,"CNc1nc(Nc2ccc(Cl)c(Cl)c2)ncc1N1CCNC1=O [3 (26), 2-(3,4-dichlorophenylamino)-4-methylamino-5-(imidazolidin-2-on-1-yl)-pyrimidine]"
12,0.1 µM,"CNc1nc(Nc2ccc(Cl)c(Cl)c2)ncc1NC(=O)N1CCN(C)CC1 [11 (2), 2-(3,4-dichlorophenylamino)-4-methylamino-5-(4-methylpiperazinocarbonylamino)-pyrimidine]"
13,0.15 µM,"CNc1nc(Nc2cccc(Cl)c2)ncc1NC(=O)N1CCOCC1 [3 (59), 2-(3-chlorophenylamino)-4-methylamino-5-(morpholinocarbonylamino)-pyrimidine]"
14,0.3 µM,"CNc1nc(Nc2ccc(Cl)c(Cl)c2)ncc1N1CCCNC1=O [3 (33), 2-(3,4-dichlorophenylamino)-4-methylamino-5-(tetrahydro-2(1H)-pyrimidinon-1-yl)-pyrimidine]"
15,0.1 µM,"CNc1nc(Nc2ccc(Cl)c(Cl)c2)ncc1NC(=O)N1CCCC1 [Example 11, 2-(3,4-dichlorophenylamino)-4-methylamino-5-(pyrrolidinocarbonylamino)-pyrimidine]"
16,0.7 µM,"CNc1nc(Nc2ccc(Cl)c(Cl)c2)ncc1NC(=O)N1CCNCC1 [11 (6), 2-(3,4-dichlorophenylamino)-4-methylamino-5-(piperazinocarbonylamino)-pyrimidine]"
